Laboratory results reported in patent EP0632806B1 (priority 1992, dated 1993).
Structures can show the parent of a compound that is named as a salt.

Key:
[1] = tested on: pentobarbital anaesthetized rats subject to coronary artery occlusion; settings: rat, in vivo
[2] = tested on: pentobarbital anaesthetized rats; settings: rat, in vivo

Q: Which “incidence of VF arrhythmias” value [1] does the source give for `C=CCN1CC[C@]23c4c5ccc(O)c4O[C@H]2C(=O)CC[C@@]3(O)[C@H]1C5` [naloxone, naloxone hydrochloride] here?
A: slightly decreased

Q: And the BP [2]?
A: 103±5

Q: What about the HR [2] of the same molecule?
A: 379±6

Q: What about the PR [2] of the same molecule?
A: 57±1

Q: What about the QRS [2] of the same molecule?
A: 29±1

Q: And the QT [2]?
A: 41±1
